# Tests used:
# Assay in all cases: Test C preemergence
# blackgrass = assay type: in vivo, Alopecurus myosuroides; settings: Alopecurus myosuroides, pre-emergence
# Summary of the method: (§1)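 Greenhouse herbicide screen. Pre: seeded loam/sand, sprayed at planting. Post: 1–4 leaf plants (2–18 cm) in peat-based mix. Formulation: solvent mixture + surfactant, non-phytotoxic. Readout: visual % control vs untreated, 13–15 d; dash = not tested.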
# large (Lg) crabgrass = assay type: in vivo, Digitaria sanguinalis; settings: Digitaria sanguinalis, pre-emergence
# Summary of the method: as §1
# giant foxtail = assay type: in vivo, Setaria faberii; settings: Setaria faberi, pre-emergence
# Summary of the method: as §1
# soybean = assay type: in vivo, Glycine max; settings: Glycine max, pre-emergence
# Summary of the method: as §1
# Italian ryegrass = assay type: in vivo, Lolium multiflorum; settings: Lolium multiflorum, pre-emergence
# Summary of the method: as §1
# barnyardgrass = assay type: in vivo, Echinochloa crus-galli; settings: Echinochloa crus-galli, pre-emergence
# Summary of the method: as §1
# yellow nutsedge = assay type: in vivo, Cyperus esculentus; settings: Cyperus, pre-emergence
# Summary of the method: as §1
# ragweed = assay type: in vivo, Ambrosia elatior; settings: Ambrosia artemisiifolia, pre-emergence
# Summary of the method: as §1
# corn = assay type: in vivo, Zea mays; settings: Zea mays, pre-emergence
# Summary of the method: as §1
# oilseed rape = assay type: in vivo, Brassica napus; settings: Brassica napus, pre-emergence
# Summary of the method: as §1
# morningglory = assay type: in vivo, Ipomoea coccinea; settings: Ipomoea, pre-emergence
# Summary of the method: as §1
# velvetleaf = assay type: in vivo, Abutilon theophrasti; settings: Abutilon theophrasti, pre-emergence
# Summary of the method: as §1
# pigweed = assay type: in vivo, Amaranthus retroflexus; settings: Amaranthus retroflexus, pre-emergence
# Summary of the method: as §1
# lambsquarters = assay type: in vivo, Chenopodium album; settings: Chenopodium album, pre-emergence
# Summary of the method: as §1
smiles,measurement,setting,value
"N#Cc1cccc(Oc2ncc(F)cn2)c1-n1cc(C(F)(F)F)cn1 [Compound 79, 3-[(5-fluoro-2-pyrimidinyl)oxy]-2-[4-(trifluoromethyl)-1H-pyrazol-1-yl]benzonitrile]",pest or weed control at 62 g/ha,"blackgrass; 62 g ai/ha, preemergence, scale 0 (no effect) to 100 (complete control), read-out: Blackgrass plant response rating",90%
same,pest or weed control at 125 g/ha,"blackgrass; 125 g ai/ha, preemergence, scale 0 (no effect) to 100 (complete control), read-out: Blackgrass plant response rating",90%
same,pest or weed control at 250 g/ha,"blackgrass; 250 g ai/ha, preemergence, scale 0 (no effect) to 100 (complete control), read-out: Blackgrass plant response rating",90%
same,pest or weed control at 31 g/ha,"blackgrass; Preemergence, 31 g ai/ha, scale 0 to 100, 0 no effect, 100 complete control, read-out: Plant response rating, Blackgrass",90%
same,pest or weed control at 62 g/ha,"large (Lg) crabgrass; 62 g ai/ha, preemergence, scale 0 (no effect) to 100 (complete control), read-out: Crabgrass, Large plant response rating",100%
same,pest or weed control at 125 g/ha,"large (Lg) crabgrass; 125 g ai/ha, preemergence, scale 0 (no effect) to 100 (complete control), read-out: Crabgrass, Large plant response rating",100%
same,pest or weed control at 250 g/ha,"large (Lg) crabgrass; 250 g ai/ha, preemergence, scale 0 (no effect) to 100 (complete control), read-out: Crabgrass, Large plant response rating",100%
same,pest or weed control at 31 g/ha,"large (Lg) crabgrass; Preemergence, 31 g ai/ha, scale 0 to 100, 0 no effect, 100 complete control, read-out: Plant response rating, Crabgrass, Large",100%
same,pest or weed control at 62 g/ha,"giant foxtail; 62 g ai/ha, preemergence, scale 0 (no effect) to 100 (complete control), read-out: Foxtail, Giant plant response rating",100%
same,pest or weed control at 125 g/ha,"giant foxtail; 125 g ai/ha, preemergence, scale 0 (no effect) to 100 (complete control), read-out: Foxtail, Giant plant response rating",100%
same,pest or weed control at 250 g/ha,"giant foxtail; 250 g ai/ha, preemergence, scale 0 (no effect) to 100 (complete control), read-out: Foxtail, Giant plant response rating",100%
same,pest or weed control at 31 g/ha,"giant foxtail; Preemergence, 31 g ai/ha, scale 0 to 100, 0 no effect, 100 complete control, read-out: Plant response rating, Foxtail, Giant",98%
same,plant injury at 62 g/ha,"soybean; 62 g ai/ha, preemergence, scale 0 (no effect) to 100 (complete control), read-out: Soybean plant response rating",75%
same,plant injury at 125 g/ha,"soybean; 125 g ai/ha, preemergence, scale 0 (no effect) to 100 (complete control), read-out: Soybean plant response rating",90%
same,plant injury at 250 g/ha,"soybean; 250 g ai/ha, preemergence, scale 0 (no effect) to 100 (complete control), read-out: Soybean plant response rating",95%
same,plant injury at 31 g/ha,"soybean; Preemergence, 31 g ai/ha, scale 0 to 100, 0 no effect, 100 complete control, read-out: Plant response rating, Soybean",75%
same,pest or weed control at 62 g/ha,"Italian ryegrass; 62 g ai/ha, preemergence, scale 0 (no effect) to 100 (complete control), read-out: Ryegrass, Italian plant response rating",90%
same,pest or weed control at 125 g/ha,"Italian ryegrass; 125 g ai/ha, preemergence, scale 0 (no effect) to 100 (complete control), read-out: Ryegrass, Italian plant response rating",90%
same,pest or weed control at 250 g/ha,"Italian ryegrass; 250 g ai/ha, preemergence, scale 0 (no effect) to 100 (complete control), read-out: Ryegrass, Italian plant response rating",90%
same,pest or weed control at 31 g/ha,"Italian ryegrass; Preemergence, 31 g ai/ha, scale 0 to 100, 0 no effect, 100 complete control, read-out: Plant response rating, Ryegrass, Italian",40%
same,pest or weed control at 62 g/ha,"barnyardgrass; 62 g ai/ha, preemergence, scale 0 (no effect) to 100 (complete control), read-out: Barnyardgrass plant response rating",100%
same,pest or weed control at 125 g/ha,"barnyardgrass; 125 g ai/ha, preemergence, scale 0 (no effect) to 100 (complete control), read-out: Barnyardgrass plant response rating",100%
same,pest or weed control at 250 g/ha,"barnyardgrass; 250 g ai/ha, preemergence, scale 0 (no effect) to 100 (complete control), read-out: Barnyardgrass plant response rating",100%
same,pest or weed control at 31 g/ha,"barnyardgrass; Preemergence, 31 g ai/ha, scale 0 to 100, 0 no effect, 100 complete control, read-out: Plant response rating, Barnyardgrass",100%
same,pest or weed control at 62 g/ha,"yellow nutsedge; 62 g ai/ha, preemergence, scale 0 (no effect) to 100 (complete control), read-out: Nutsedge, Yellow plant response rating",15%
same,pest or weed control at 125 g/ha,"yellow nutsedge; 125 g ai/ha, preemergence, scale 0 (no effect) to 100 (complete control), read-out: Nutsedge, Yellow plant response rating",65%
same,pest or weed control at 250 g/ha,"yellow nutsedge; 250 g ai/ha, preemergence, scale 0 (no effect) to 100 (complete control), read-out: Nutsedge, Yellow plant response rating",75%
same,pest or weed control at 31 g/ha,"yellow nutsedge; Preemergence, 31 g ai/ha, scale 0 to 100, 0 no effect, 100 complete control, read-out: Plant response rating, Nutsedge, Yellow",10%
same,pest or weed control at 62 g/ha,"ragweed; 62 g ai/ha, preemergence, scale 0 (no effect) to 100 (complete control), read-out: Ragweed plant response rating",90%
same,pest or weed control at 125 g/ha,"ragweed; 125 g ai/ha, preemergence, scale 0 (no effect) to 100 (complete control), read-out: Ragweed plant response rating",90%
same,pest or weed control at 250 g/ha,"ragweed; 250 g ai/ha, preemergence, scale 0 (no effect) to 100 (complete control), read-out: Ragweed plant response rating",90%
same,pest or weed control at 31 g/ha,"ragweed; Preemergence, 31 g ai/ha, scale 0 to 100, 0 no effect, 100 complete control, read-out: Plant response rating, Ragweed",90%
same,plant injury at 125 g/ha,"corn; 125 g ai/ha, preemergence, scale 0 (no effect) to 100 (complete control), read-out: Corn plant response rating",80%
same,plant injury at 250 g/ha,"corn; 250 g ai/ha, preemergence, scale 0 (no effect) to 100 (complete control), read-out: Corn plant response rating",95%
same,"Corn plant response rating (crop injury, 0 = no effect, 100 = complete kill) at 31 g/ha","corn; Preemergence, 31 g ai/ha, scale 0 to 100, 0 no effect, 100 complete control",40%
same,plant injury at 62 g/ha,"oilseed rape; 62 g ai/ha, preemergence, scale 0 (no effect) to 100 (complete control), read-out: Oilseed Rape plant response rating",95%
same,plant injury at 125 g/ha,"oilseed rape; 125 g ai/ha, preemergence, scale 0 (no effect) to 100 (complete control), read-out: Oilseed Rape plant response rating",95%
same,plant injury at 250 g/ha,"oilseed rape; 250 g ai/ha, preemergence, scale 0 (no effect) to 100 (complete control), read-out: Oilseed Rape plant response rating",95%
same,plant injury at 31 g/ha,"oilseed rape; Preemergence, 31 g ai/ha, scale 0 to 100, 0 no effect, 100 complete control, read-out: Plant response rating, Oilseed Rape",90%
same,pest or weed control at 62 g/ha,"morningglory; 62 g ai/ha, preemergence, scale 0 (no effect) to 100 (complete control), read-out: Morningglory plant response rating",100%
same,pest or weed control at 125 g/ha,"morningglory; 125 g ai/ha, preemergence, scale 0 (no effect) to 100 (complete control), read-out: Morningglory plant response rating",100%
same,pest or weed control at 250 g/ha,"morningglory; 250 g ai/ha, preemergence, scale 0 (no effect) to 100 (complete control), read-out: Morningglory plant response rating",100%
same,pest or weed control at 31 g/ha,"morningglory; Preemergence, 31 g ai/ha, scale 0 to 100, 0 no effect, 100 complete control, read-out: Plant response rating, Morningglory",95%
same,pest or weed control at 62 g/ha,"velvetleaf; 62 g ai/ha, preemergence, scale 0 (no effect) to 100 (complete control), read-out: Velvetleaf plant response rating",100%
same,pest or weed control at 125 g/ha,"velvetleaf; 125 g ai/ha, preemergence, scale 0 (no effect) to 100 (complete control), read-out: Velvetleaf plant response rating",100%
same,pest or weed control at 250 g/ha,"velvetleaf; 250 g ai/ha, preemergence, scale 0 (no effect) to 100 (complete control), read-out: Velvetleaf plant response rating",100%
same,pest or weed control at 31 g/ha,"velvetleaf; Preemergence, 31 g ai/ha, scale 0 to 100, 0 no effect, 100 complete control, read-out: Plant response rating, Velvetleaf",90%
same,pest or weed control at 62 g/ha,"pigweed; 62 g ai/ha, preemergence, scale 0 (no effect) to 100 (complete control), read-out: Pigweed plant response rating",100%
same,pest or weed control at 125 g/ha,"pigweed; 125 g ai/ha, preemergence, scale 0 (no effect) to 100 (complete control), read-out: Pigweed plant response rating",100%
same,pest or weed control at 250 g/ha,"pigweed; 250 g ai/ha, preemergence, scale 0 (no effect) to 100 (complete control), read-out: Pigweed plant response rating",100%
same,pest or weed control at 31 g/ha,"pigweed; Preemergence, 31 g ai/ha, scale 0 to 100, 0 no effect, 100 complete control, read-out: Plant response rating, Pigweed",100%
same,pest or weed control at 62 g/ha,"lambsquarters; 62 g ai/ha, preemergence, scale 0 (no effect) to 100 (complete control), read-out: Lambsquarters plant response rating",100%
same,pest or weed control at 125 g/ha,"lambsquarters; 125 g ai/ha, preemergence, scale 0 (no effect) to 100 (complete control), read-out: Lambsquarters plant response rating",100%
same,pest or weed control at 250 g/ha,"lambsquarters; 250 g ai/ha, preemergence, scale 0 (no effect) to 100 (complete control), read-out: Lambsquarters plant response rating",100%
same,pest or weed control at 31 g/ha,"lambsquarters; Preemergence, 31 g ai/ha, scale 0 to 100, 0 no effect, 100 complete control, read-out: Plant response rating, Lambsquarters",100%
